What is called melting point is the temperature, or range, at which the solid turns liquid.

Structures are written as SMILES.

Molecule `COc1ccc(-c2nnsc2-c2ccccc2)cc1` returned a melting point of 81.5 to 82.5 °C. As for `Cc1ccc2c(Cl)ccnc2c1[N+](=O)[O-]`, the melting point lay within 140 to 147 °C. `Cc1c(NC(=O)c2ccc(-c3ccc(F)cc3)cc2)ccc2cc(C(C)O)cnc12` (stereo unspecified): the melting point fell in the range of 189 to 192 °C. Molecule `Cc1ccc(C)c2c(=O)oc(=O)[nH]c12` came in with a melting point of 295 to 298 °C. Take `CCCCCS(=O)(=O)NC(=O)c1ccc2nc(C)n(Cc3ccc(N(C)C(=O)OCC)cc3Cl)c2n1`: the melting point fell in the range of 149 to 150 °C. Take `Cc1nc2ccc(NC(=O)COCc3ccccc3)cc2c(=O)n1C1CCC(=O)NC1=O` (stereo unspecified): the melting point is 248 to 250 °C. For `C1=NCC2=C3C(=C1)CCCC3CCC2` (stereo unspecified), the melting point fell in the range of 207 to 209 °C. Turning to `O=C(C1CCN(c2ccncc2)CC1)N1CCCN(S(=O)(=O)c2ccc3ccccc3c2)CC1`, the melting point was in the range of 178 to 180 °C.

`O=[N+]([O-])c1cc(I)cc(CO)c1` yielded a melting point of 85.5 to 86.5 °C. Molecule `CCCCCCCCCCOc1cnc(-c2ccc(C(C)O)cc2)nc1` (single isomer, unassigned; (+)) returned a melting point of 65 to 66 °C.

In the case of `CCCCCC(CC(=O)Nc1cc(C(N)=O)ccc1C(C)(C)C)c1ccc(OCCC(N)S(C)(=O)=O)cc1OC` (stereo unspecified), the melting point was 77 to 79 °C. `Cc1c(Cl)cccc1N=Cc1ccc(Cl)cc1` returned a melting point of 79 to 81 °C. For `CCCCCCSc1nn2c(=O)cc(Cl)nc2s1`, the melting point was in the range of 95 to 96 °C. The figure for `CC1=Cc2ccncc2C(C)(NS(=O)(=O)c2ccc(C)cc2)c2ccccc21` (stereo unspecified) is 174 to 177 °C; for `CCCc1c(SCCCOc2ccc(C#N)cc2)ccc(C(C)=O)c1O` it is 90 to 92 °C. The figure for `COc1ccc(C(=O)Nc2cc(C)cc(C)c2)cc1NC(=S)Nc1cccc(C)c1` is 188 to 189 °C; for `COc1ccc(C(=O)c2ccccn2)cc1OC` it is 91.5 to 93 °C; for `CCOC(=O)CC(=O)N(C)c1ccccc1[N+](=O)[O-]` it is 54 to 55 °C. Molecule `N#Cc1cccc(C2C3=C(CCS3)NC3=C2SCC3)c1` had a melting point of 248 °C.

Regarding `CCOC(=O)C(CC)Oc1ccc(-c2coc3cc4c(cc3c2=O)OCO4)cc1` (stereo unspecified), the melting point was in the range of 119 to 121 °C. For the molecule `BrCC(=CSc1ccccc1Br)c1ccccc1`, the melting point came to 65 °C. On to `CCOC(=O)C1=CNc2cccnc2S1`, for which the melting point is 194 to 195 °C.

Turning to `CCc1cc(=O)c2c([nH]1)CCOC2`, the melting point was in the range of 238 to 240 °C. `COc1cc(I)cc(OC)c1` had a melting point of 73 to 74 °C. The molecule `CC(C)C[C@H](NC(=O)OC(C)(C)C)C(=O)N[C@@H](C(C)C)[C@@H](O)c1c(-c2ccc(F)cc2)c1=O` gave a melting point of 90 to 96 °C.

On to `O=C(CCC(=O)c1ccccc1)NC1CCCCC1`, for which the melting point was in the range of 109 to 111 °C. `CCCc1nc(CSc2ccc(CCC(=O)O)cc2)c(C(=O)OCC)n1Cc1cc2c(cc1Cl)OCO2` displayed a melting point of 174 °C. Turning to `Cc1ccc2c(c1)C=Cc1cc(C)ccc1C2c1cn(-c2ccnc(NCC(=O)Nc3nc(CC(=O)O)cs3)n2)c(=O)[nH]c1=O`, the melting point was 223 °C. For the molecule `CC1(c2ccccc2)C(=O)Nc2cc(Cl)ccc2C1=O` (stereo unspecified), the melting point was in the range of 174 to 175 °C. On to `COc1cc2c(cc1O)CCN(C(=O)c1cc(OC)c(OC)c(OC)c1)C2`, for which the melting point lay within 172 to 173 °C. Molecule `C=CC(=O)N[C@H](C)C(=O)OC1(C)CCC(C(C)C)CC1` (stereo partly specified) gave a melting point of 79 °C. On to `O=c1[nH]c2cc(Cl)ccc2c(O)c1Sc1cccc(Br)c1`, for which the melting point lay within 265 to 268 °C. The figure for `COc1cc2c(cc1OC)NC1=C(C2)C(=O)N(C)CN1` is 225 to 230 °C. `CC(C)C1=C(C#N)C(c2cccc3nocc23)c2c[nH]nc2N1` (stereo unspecified) showed a melting point of 245 °C. `CC(C)(C)c1ccc2c(c1)C(C(=O)O)c1ccccc1CO2` (stereo unspecified) displayed a melting point of 197 to 198 °C. Molecule `CCc1c(-c2ccc(OCc3ccccc3)cc2)c2c(COCCCCCN3CCCCC3)cc3c(OCc4ccccc4)ccc1n32` gave a melting point of 106 to 107 °C. The figure for `CCCCN=C(O)c1c(Cl)c(Sc2ccccc2)c(Sc2ccccc2)c(Cl)c1C(=O)O` is 215 to 216 °C; for `CC(C(=O)N(C)C)n1cc(-c2ccccc2)c(-c2ccccc2)n1` (stereo unspecified) it is 122 to 124 °C.

For the molecule `CCOc1cc(OCCCc2cn(-c3ccc(C(F)(F)F)cn3)nc2-c2ccccc2)ccc1CCC(=O)O`, the melting point lay within 135 to 136 °C. `COCOc1ccc(-c2ncc3ncc(N4CCCCC4=O)cc3n2)cc1` yielded a melting point of 202 to 204 °C.

Take `CCC(C(=O)c1ccc(Cl)cc1)n1ncn(-c2ccc(N3CCN(C(=O)Cc4ccccc4)CC3)cc2)c1=O` (stereo unspecified): the melting point amounted to 172 °C. As for `Cc1ccc2c(-c3ccoc3)cc(=O)oc2c1`, the melting point fell in the range of 160 to 162 °C.

On to `CC(C)(C)OC(=O)NNc1ccc(N2C(=O)C=CC2=O)cn1`, for which the melting point was in the range of 182 to 184 °C. `O=C(C1CCC(Nc2ncc3ncnc(Nc4ccc(F)c(Cl)c4)c3n2)CC1)N1CCNCC1` (stereo unspecified): the melting point was in the range of 178 to 182 °C. Molecule `O=C(O)c1c[nH]c(=S)n1C1CCc2c(F)cc(F)cc2C1` (stereo unspecified) came in with a melting point of 250 to 252 °C. The figure for `COc1ccc(CNc2cc3c(Nc4ccc(OCc5ccccn5)c(Cl)c4)ncnc3cn2)cc1` is 182 to 184 °C; for `COc1ccc2c(c1)C(NC(=O)OCc1ccccc1)C(=O)N2c1ccc(F)cc1` (stereo unspecified) it is 154 to 156 °C. `CCCCCCCCCCCCCCCCCCCC(=O)OCC(O)COC(=O)CCCCCCCCCCCCCCCCCCC` displayed a melting point of 83 to 84 °C.

Take `O=CNCC1Cc2ccccc2Cc2ccccc21` (stereo unspecified): the melting point is 109 to 111 °C. The figure for `COc1ccc(-c2csc(Nc3ccccc3C(F)(F)F)n2)cc1OC` is 188 °C; for `CC(C)COC(=O)N1CCC(c2ccc3oc(-c4ccc(S(C)(=O)=O)cc4F)nc3c2)CC1` it is 169 to 173 °C; for `CC(=O)Nc1ccc(S(=O)(=O)Nc2ccn(C3CC3)c(=O)n2)cc1` it is 139 to 143 °C. For `O=C(NCc1ccccc1)c1ccnc(NC(=O)c2cc(F)ccc2Cl)c1`, the melting point lay within 180 to 181 °C. Molecule `CCCCCCCCC=CCCCCCCCCCCCC(=O)NC` had a melting point of 48 to 49 °C. In turn, `O=C1N[C@@H](Cc2ccccc2)[C@@H](COS(=O)(=O)c2ccc([N+](=O)[O-])cc2)O1` gave a melting point of 148 to 150 °C. Turning to `O=C(NC1CCC(CCN2CCC(c3cccc4c3CCO4)CC2)CC1)C1CCOC1` (racemic), the melting point came to 211 °C.

Molecule `O=C(O)C(O)Cc1ccc(OCCN2CCSc3ccccc32)cc1` (stereo unspecified) came in with a melting point of 74 to 76 °C.

For `Cc1cc(F)ccc1-c1nc(NCCNC(=O)Nc2ccccc2)nc2c1ccc(=O)n2-c1c(F)cccc1F`, the melting point fell in the range of 142 to 148 °C. Molecule `CCc1nn(C2CN(C(C)C)C2)c2c(=O)[nH]c(-c3cc(S(C)(=O)=O)ccc3OCC(C)C)nc12` displayed a melting point of 206 to 209 °C. Molecule `[N-]=[N+]=NS(=O)(=O)c1cc(C(=O)O)cc(S(=O)(=O)N=[N+]=[N-])c1` returned a melting point of 181 to 183 °C. The value for `COc1ccc(Cl)c(Oc2c(CO)nc(N3CCOCC3)nc2NS(=O)(=O)c2ccc(C(C)(C)C)cc2)c1` was 103 °C. The value for `OCc1cnc(Cl)c(Cl)c1` was 72 to 75 °C. The value for `CCCCCCCCCCCCCC(=O)NCCCSc1ccncc1` was 80 to 81 °C; that for `COc1ccc(C(C)=NOCc2ccc([N+](=O)[O-])cc2)cc1F` was 67 to 68 °C.

In turn, `CCOC(=O)C(N)C=CCP(=O)(O)O` (stereo unspecified) returned a melting point of 167 to 168 °C. For the molecule `CC(C)S(=O)(=O)c1cc(OCc2ccccc2F)c2[nH]nc(Nc3nccs3)c2c1`, the melting point fell in the range of 268 to 269 °C. The figure for `O=C1CCC2CC(O)C(=O)N12` (stereo unspecified) is 135 to 140 °C. The value for `CCN(CC)CCCNC(=O)Cn1c(-c2ccc(Cl)cc2)nc2cccnc21` was 172 to 174 °C; that for `CCCCCCCCCCCCn1nnnc1C(C(=O)Nc1c(C(C)C)cccc1C(C)C)c1ccccc1` (stereo unspecified) was 113 to 115 °C; that for `NS(=O)(=O)c1ccc(-c2cc(-c3nc(-c4ccc(C(F)(F)F)cc4F)cc(C(F)(F)F)n3)ccn2)s1` was 228 °C.

The molecule `O=C(O)c1cccc(Oc2cccc(-c3nn(Cc4ccc(C(F)(F)P(=O)(O)O)c(F)c4)c(=Nc4ccc(Cl)c(Cl)c4)s3)c2)c1` showed a melting point of 153 to 156 °C. As for `CC(=O)Oc1ccc(C=CC(=O)NC2CCc3ccccc32)cc1[N+](=O)[O-]` (stereo unspecified), the melting point was 177 to 178 °C.

As to `CCOC(=O)c1ccc(-n2ccnc2C)cc1`, the melting point is 72 to 73 °C. The value for `Cc1cc(Oc2ccc3nc(COc4ccc(CC5SC(=O)NC5=O)cc4)n(C)c3c2)cc(C)c1NC(=O)Nc1ccc([N+](=O)[O-])cc1` (stereo unspecified) was 178 to 180 °C; that for `COC(=O)CN(C)S(=O)(=O)c1ccc(Cl)cc1` was 80 to 80.5 °C.

The molecule `COC1CNCc2cc3ccccc3n21` (stereo unspecified) gave a melting point of 120 to 122 °C. Molecule `COC(=O)c1ccc(OCCCCCOc2ccc(C#N)cc2)c(OC)c1` came in with a melting point of 105 to 107 °C.

Consider `CCCCN1Cc2[nH]c3ccccc3c2C1`, for which the melting point lay within 151 to 152 °C. The value for `CCN(CC)C(=O)CCC(=O)Oc1cc(-n2c(=O)cc(C(F)(F)F)n(C)c2=O)c(F)cc1Cl` was 91 to 93 °C. The molecule `CCOC(=O)Cc1c(C(=O)OCC)c(C)cn1CCOS(C)(=O)=O` gave a melting point of 66 to 68 °C. With `C/C=C/CC(=O)N[C@H]1CC[C@H](CCN2CCN(c3nccc4c3CCO4)CC2)CC1`, the melting point turned out to be 176 °C. For the molecule `Fc1ccc(-c2[nH]cc(C3=CC4CCC(C3)N4)c2-c2ccncc2)cc1` (stereo unspecified), the melting point lay within 212 to 213 °C. Molecule `CCOC(=O)c1cccc(NC(=O)c2cc(C(C)C)c(C(C)C)o2)c1` showed a melting point of 144 to 145 °C. The figure for `CC(=O)Nc1ccc(C2=NN(C(=O)C3CC3)C(C)Cc3cc4c(cc32)OCO4)cc1` (stereo unspecified) is 242 to 243 °C. Regarding `Cc1nn(C)c2nc(-c3ccccc3)cc(O)c12`, the melting point lay within 262 to 264 °C. In the case of `Cc1ccc(S(=O)(=O)OCC2CNC(=O)O2)cc1` (stereo unspecified), the melting point is 96 to 99 °C.

These data come from a melting point compilation (Tetko et al.; mined from patent text by program, amines drawn as free bases though some values may be those of a salt).
